Source: patent US20240425589A1, “CYTOTOXICITY-INDUCING THERAPEUTIC AGENT FOR USE IN TREATMENT OF CANCER” (CHUGAI SEIYAKU KABUSHIKI KAISHA, priority 2021, published 2024)
Structures can show the parent of a compound that is named as a salt.

Assays:
[1] = test system: TGF-β1 expression in cancer cells; details: reported in literature; cited from earlier work
NIH:OVCAR-3 = assay: OVCAR3 xenograft in huNOG mice, combination with irinotecan hydrochloride; type: in vivo; details: 60 days after transplantation; CS4135 0.1 mg/kg, irinotecan hydrochloride 25 mg/kg, iv days 39, 46
Experimental: In this test, NOG(huNOG) mice (described in the aforementioned Example 13) transplanted with ovarian cancer cell line NIH:OVCAR-3 (OVCAR3, ATCC) and human CD34-positive cells were used. The OVCAR3 cell line was transplanted subcutaneously to the right flank of the mice, and the mice were divided into groups 39 days after transplantation. Individuals whose tumor volume reached 160 to 263 mm^3 were divided into groups. Vehicle 1 and CS4135 were administered into the mouse tail vein 39 and 46 days after transplantation. PBS containing 0.05% Tween-20 was used as Vehicle 1. Vehicle 2 and irinotecan hydrochloride (Sawai Pharmaceutical Co., Ltd.) were administered into the mouse tail vein 39 and 46 days after transplantation. Physiological saline was used as Vehicle 2.
Tumor volume was measured 39, 42, 46, 49, 53, 57, and 60 days after transplantation, and the average tumor volume is indicated for each group. The tumor volume was calculated by the following equation: […]
(§1) Tumor Growth Inhibition (TGI) was calculated by the following equation: […]

[2] = test system: TGF-β1 expression in NIH:OVCAR-3; assay: TGF-β1 expression by quantitative PCR after chemotherapeutic agents; type: cell-based, human; details: 6 days; same treated cells as Example 21.1; vs untreated
Experimental: Next, the cDNAs prepared from the human ovarian cancer cell line (NIH:OVCAR-3, ATCC) treated with carboplatin, cisplatin, irinotecan, or gemcitabine, which were used in Example 21.1, were used to perform real-time PCR with TGF-β1-specific primers (Power SYBR (registered trademark) Green Master Mix, ThermoFisher), and TGF-β1 expression was analyzed (QuantStudio 12K Flex Real-Time PCR System, ThermoFisher).
Sequences of the primers for human TGF-β1 are as follows: […]
The same primers as those in the above-mentioned Example 21.1 were used as the primers for human GAPDH used as the internal control.

[3] = test system: CLDN6 expression in SNG-M tumor; assay: CLDN6 expression by real-time PCR in SNG-M tumor transplant; type: in vivo, NOD/scid mice; details: 40 mg/kg or 80 mg/kg ip twice, vs vehicle
Experimental: SNG-M (1×10^7 cells) was transplanted subcutaneously to NOD/scid mice (CLEA Japan). After tumor engraftment, the vehicle (physiological saline) or carboplatin at 40 mg/kg or 80 mg/kg was administered intraperitoneally on the day of transplantation (day 0) and 3 days after transplantation (day 3), and the tumor was sampled 6 days after transplantation (day 6).
RNA was purified from the tumor (RNeasy Mini Kit, QIAGEN), and then cDNA synthesis was performed (Superscript IV VILO Master Mix, ThermoFisher). Using the cDNAs as templates, real-time PCR was performed using a CLDN6-specific primer (Power SYBR (registered trademark) Green Master Mix, ThermoFisher) to analyze CLDN6 expression (QuantStudio 12K Flex Real-Time PCR System, ThermoFisher).
Sequences of the primers for human CLDN6 and primers for human GAPDH used as an internal control are as follows: […]

[4] = test system: CLDN6 expression in NIH-OVCAR3, NCI-H1435, SNG-M; assay: CLDN6 expression by FACS after platinum preparation treatment; type: cell-based, human; details: 5 days; cisplatin 0.1 or 0.6 μg/mL, carboplatin 0.5 or 5 μg/mL; vs untreated
Experimental: Human ovarian cancer cell line (NIH-OVCAR3, ATCC), human lung cancer cell line (NCI-H1435, ATCC), and human endometrial cancer cell line (SNG-M, Health Science Research Resources Bank) were treated with cisplatin (CDDP, Nichiiko) or carboplatin (CBDCA, Sandoz) to analyze the effect of the treatment on CLDN6 expression.
Each cell was subjected to the addition of cisplatin at 0.1 μg/mL (OVCAR3) or 0.6 μg/mL (H1435, SNG-M), or carboplatin at 0.5 μg/mL (OVCAR3) or 5 μg/mL (H1435, SNG-M), and then cultured for five days. After culturing, the cells were recovered, and CLDN6 expression was analyzed by FACS.
In FACS analysis, cells were detached from the culturing flask and then reacted with an anti-CLDN6 antibody (AE3-20 mIgG2a, Japanese Patent No. 5848863) or an isotype antibody (mIgG2a, BioLegend) at 2 μg/mL, at 4° C. for one hour. Next, reaction with Alexa Flour 488-labeled anti-mouse IgG (ThermoFisher) at 10 μg/mL was performed at 4° C. for one hour, and the amount of CLDN6 expression was analyzed using a flow cytometer (FACSVerse, BD Biosciences).

OVCAR3 = OVCAR3 xenograft in huNOG mice, combination with carboplatin; type: in vivo; details: 56 days after transplantation; CS4135 0.1 mg/kg iv days 38, 45 (sequential: 48, 55), carboplatin 60 mg/kg ip days 38, 45
Experimental: In this test, NOG (huNOG) mice (described in the aforementioned Example 13) transplanted with ovarian cancer cell line OVCAR3 and human CD34-positive cells were used. The OVCAR3 cell line was transplanted subcutaneously to the right flank of the mice, and the mice were divided into groups 38 days after transplantation. Individuals whose tumor volume reached 119 to 210 mm^3 were divided into groups. Vehicle 1 and CS4135 were administered into the mouse tail vein 38 and 45 days after transplantation. PBS containing 0.05% Tween-20 was used as Vehicle 1. Vehicle 2 and carboplatin (Bristol Myers Squibb Company) were administered intraperitoneally to the mice 38 and 45 days after transplantation. Physiological saline was used as Vehicle 2.
Tumor volume was measured 38, 42, 45, 48, 52, and 56 days after transplantation, and the average tumor volume was indicated for each group. The tumor volume was calculated by the following equation: […]
as §1

[5] = test system: CLDN6 expression in NIH:OVCAR-3; assay: CLDN6 expression by quantitative PCR after chemotherapeutic agents; type: cell-based, human; details: 6 days; carboplatin 0.5 μg/mL, cisplatin 0.1 μg/mL, irinotecan 0.25 μg/mL, gemcitabine 2 ng/mL; vs untreated
Experimental: Various chemotherapeutic agents were added to human ovarian cancer cell line (NIH:OVCAR-3, ATCC) to analyze the change in CLDN6 expression. Regarding the NIH:OVCAR-3 cells seeded on culture plates, RNAs were purified (RNeasy Mini Kit, QIAGEN) from cells to which no pharmaceutical agent was added (untreated cells), or from cells collected 6 days after addition of carboplatin (0.5 μg/mL), cisplatin (0.1 μg/mL), irinotecan (0.25 μg/mL), or gemcitabine (2 ng/mL), and then cDNA synthesis (Superscript IV VILO Master Mix, ThermoFisher) was performed. By using the cDNAs as templates, real-time PCR was performed using CLDN6-specific primers (Power SYBR (registered trademark) Green Master Mix, ThermoFisher) to analyze CLDN6 expression (QuantStudio 12K Flex Real-Time PCR System, ThermoFisher). Sequences of the primers for human CLDN6 and the primers for human GAPDH that were used as the internal control are as follows: […]

SNG-M = SNG-M xenograft in huNOG mice, combination with carboplatin; type: in vivo; details: 30 days after transplantation; CS4135 0.5 mg/kg iv day 13, carboplatin 40 mg/kg ip days 13, 16, 20
Experimental: In this test, NOG (huNOG) mice (described in the aforementioned Example 13) transplanted with human uterus cancer cell line SNG-M and human CD34-positive cells were used. The SNG-M cell line was transplanted subcutaneously to the right flank of the mice, and the mice were divided into groups 13 days after transplantation. Individuals whose tumor volume reached 130 to 244 mm^3 were divided into groups. Vehicle 1 and CS4135 were administered into the mouse tail vein 13 days after transplantation. PBS containing 0.05% Tween-20 was used as Vehicle 1. Vehicle 2 and carboplatin (Bristol Myers Squibb Company) were administered intraperitoneally to the mice 13, 16, and 20 days after transplantation. Physiological saline was used as Vehicle 2.
Tumor volume was measured 13, 16, 20, 23, 26, and 30 days after transplantation, and the average tumor volume was indicated for each group.
The tumor volume was calculated by the following equation: […]
as §1

[6] = test system: CLDN6 expression in UWB1.289; assay: CLDN6 expression by FACS after PARP inhibitor, UWB1.289; type: cell-based, human; details: BRCA1-deficient UWB1.289, 0.03-3 μM, 3 days
Experimental: (§2) Induction of CLDN6 expression by a PARP inhibitor (olaparib) was assessed. BRCA1-deficient ovarian cancer cell line UWB1.289 (ATCC) or BRAC1 wildtype ovarian cancer cell line OV-90 (ATCC) which express human CLDN6 were used.
(§3) Target cells (3×10^5 cells) were plated onto a 6-well plate at 3 mL/well. After culturing overnight, olaparib was added at a final concentration of 0.03, 0.1, 0.3, 1, or 3 μM. DMSO was added to the control well. After incubating the plate for 3 days, the cells were recovered and the amount of CLDN6 expression on the cell surface was determined by FACS analysis using an anti-CLDN6 antibody. The level of fluorescence in the target cells recovered from the wells, to which various concentrations of olaparib were added, are shown in FIG. 27, wherein the level of fluorescence in the target cells recovered from the control well was defined as 1.

[7] = test system: CLDN6 expression in OV-90; assay: CLDN6 expression by FACS after PARP inhibitor, OV-90; type: cell-based, human; details: BRAC1 wildtype OV-90, 0.03-3 μM, 3 days
Experimental: as §2, §3

Structure (SMILES): COc1cccc2c1C(=O)c1c(O)c3c(c(O)c1C2=O)C[C@@](O)(C(=O)CO)C[C@@H]3O[C@H]1C[C@H](N)[C@H](O)[C@H](C)O1 [doxorubicin]
- expression of TGF-β1 in cancer cells [1]: induce expression of TGF-β11 in cancer cells

Structure (SMILES): CCc1c2c(nc3ccc(OC(=O)N4CCC(N5CCCCC5)CC4)cc13)-c1cc3c(c(=O)n1C2)COC(=O)[C@]3(O)CC [Irinotecan hydrochloride, irinotecan hydrochloride, reference compound]
- Tumor growth inhibition: TGI (NIH:OVCAR-3): 65%

Structure (SMILES): N.N.O=C([O-])C1(C(=O)[O-])CCC1.[Pt+2] [Carboplatin, carboplatin]
- TGF-β1 expression [2]: Increase in TGF-β1 expression was observed
- CLDN6 expression in the tumor [3]: increased
- CLDN6 expression [4]: increase in CLDN6 expression
- Tumor growth inhibition: TGI (OVCAR3): −9%
- CLDN6 expression [5]: Increase in CLDN6 expression was observed
- Tumor growth inhibition: TGI (SNG-M): 44%

Structure (SMILES): N.N.[Cl][Pt][Cl] [cisplatin]
- TGF-β1 expression [2]: Increase in TGF-β1 expression was observed
- CLDN6 expression [4]: increase in CLDN6 expression
- CLDN6 expression [5]: Increase in CLDN6 expression was observed

Structure (SMILES): CC(=O)O[C@H]1C(=O)[C@@]2(C)[C@H]([C@H](OC(=O)c3ccccc3)[C@]3(O)C[C@H](OC(=O)[C@H](O)[C@@H](NC(=O)c4ccccc4)c4ccccc4)C(C)=C1C3(C)C)[C@]1(OC(C)=O)CO[C@@H]1C[C@@H]2O [paclitaxel]
- expression of TGF-β1 in cancer cells [1]: induce expression of TGF-β11 in cancer cells

Structure (SMILES): CCc1c2c(nc3ccc(OC(=O)N4CCC(N5CCCCC5)CC4)cc13)-c1cc3c(c(=O)n1C2)COC(=O)[C@]3(O)CC [irinotecan]
- TGF-β1 expression [2]: Increase in TGF-β1 expression was observed
- CLDN6 expression [5]: Increase in CLDN6 expression was observed

Structure (SMILES): Nc1ccn([C@@H]2O[C@H](CO)[C@@H](O)C2(F)F)c(=O)n1 [gemcitabine]
- TGF-β1 expression [2]: Increase in TGF-β1 expression was observed
- CLDN6 expression [5]: Increase in CLDN6 expression was observed

Structure (SMILES): O=C(c1cc(Cc2n[nH]c(=O)c3ccccc23)ccc1F)N1CCN(C(=O)C2CC2)CC1 [olaparib]
- CLDN6 expression induction [6]: concentration-dependent enhancement of CLDN6 expression induction was observed
- CLDN6 expression induction [7]: enhancement of CLDN6 expression induction was not observed at any concentration
